Results as given in publication PMC3561933 (Bioorganic & medicinal chemistry letters, 2012).

How the values were obtained:
[1] = test system: HIV-1 Y181C variant; settings: ref 7b, cited from earlier work
[2] = test system: HIV-1 IIIB (wild-type)
[3] = observed; cited from earlier work
[4] = test system: HIV-1 strains with Tyr181Cys (Y181C) mutation; settings: cited from earlier work
[5] = test system: HIV-1 Y181C combined with Lys103Asn; settings: cited from earlier work
[6] = test system: HIV-1 Y181C variant; type: cell-based; settings: relative to 1f

For `Fc1cccc(F)c1Cc1cnc(Nc2ccc(Oc3cccnc3)c(Cl)c2)o1` [Compound 2a], the EC50 ([1]; read-out: EC50 for the Y181C variant, earlier work) is listed as 3 µM.

In the case of `N#Cc1ccc(Nc2ncc(Cc3c(F)cccc3F)o2)cc1` [Compound 1a], the “activity towards a Y181C-containing strain” value ([1]; earlier work) is given as “no activity”.

For `CCc1cc(F)c(Cc2cnc(Nc3ccc(C#N)c(Cl)c3)o2)c(F)c1` [Compound 1e], the “gain in WT potency over 1b (factor)” value ([2]; relative to 1b) was 5.

In the case of `CCc1cc(F)c(Cc2cnc(Nc3ccc(Oc4cccnc4)c(Cl)c3)o2)c(F)c1` [Compound 2b], the “fold activity boost against WT virus in comparison to 2a” value ([2]; relative to 2a) is reported as 5 fold.

In the case of `CC(C)c1ccccc1` [isopropylbenzene], the “octanol/water log P” value [3] is listed as 3.7.

For `c1ccc(C2CC2)cc1` [cyclopropylbenzene], the “octanol/water log P” value [3] is listed as 3.3.

In the case of `Cc1ccnc2c1NC(=O)c1cccnc1N2C1CC1` [nevirapine], the “activity towards HIV-1 strains with Y181C mutation” value [4] is given as “inactive”.

For `O=C1Nc2ccc(Cl)cc2[C@@](C#CC2CC2)(C(F)(F)F)O1` [efavirenz], the “activity towards Y181C combined with Lys103Asn” value [5] is given as “debilitated”.

With `N#Cc1ccc(Nc2ncc(Cc3c(F)cc(C4CC4)cc3F)o2)cc1Cl` [Compound 1g] the “factor less active against WT virus than 1f” value ([2]; relative to 1f) was 5 and the “fold less active towards Y181C variant than 1f” value [6] was 200 fold.

In the case of `CC(C)Nc1cccnc1N1CCN(C(=O)c2cc3cc(NS(C)(=O)=O)ccc3[nH]2)CC1` [delavirdine], the “activity towards HIV-1 strains with Y181C mutation” value [4] is listed as “inactive”.
